Entries after “also recorded” stand apart in the source; their conditions may differ. Marks after values point to notes of the source that are not given here.
Legend:
MES-induced seizures [1] = assay: Test 1: Maximal Electroshock Test (MES), mice i.p.; assay type: in vivo; settings: for MES: class symbol = dose
Method: (§1) Most of the prodrugs and mutual prodrugs of anticonvulsants described in this invention were evaluated at National Institute of Neurological Disorders and Stroke (NINDS), National Institute of Health (NIH), under their Antiepileptic Screening Program (ASP).
(§2) Test 1 is an initial screening for anticonvulsant activity in the Maximal Electroshock Test (MES) and Subcutaneous Metrazol Seizure Threshold Test (scMET) models combined with an initial assessment of toxicity (TOX) in mice via i.p. injection (see further explanation below). The data for each condition is presented as N/F, where N = number of animals protected from seizure and F = number of animals tested. For test of toxicity, N = number of animals displaying toxic effects and F = number of animals tested. Any deaths occurring during the test were recorded.
(§3) Maximal Electroshock Test (MES): The MES is a model for generalized tonic-clonic seizure and provides an indication of a compound's ability to prevent seizure spread when all neuronal circuits in the brain are maximally active. These seizures are highly reproducible and electro-physiologically consistent with human seizures. For all tests based on MES convulsions, 60 Hz of alternating current (50 mA in mice) is delivered for […] by corneal electrodes, which have been primed with an electrolyte solution containing an anesthetic agent (0.5% tetracaine hydrochloride). Mice were tested at various intervals following doses of 30, 100 and 300 mg/kg of test compound given by i.p. injection of a volume of 0.01 mL/g. Other doses can be used if indicated by previously known pharmacology. An animal is considered "protected" from MES-induced seizures upon abolition of the hind-limb tonic extensor component of the seizure.

clonic seizures = assay: Test 1: Subcutaneous Metrazol Seizure Threshold Test (scMET), mice i.p.; assay type: in vivo; settings: for ScMET (number of animal protected/number of animal tested): 300 mg/kg (+); for ScMET: class symbol = dose
Method: as §1, §2
Subcutaneous Metrazol Seizure Threshold Test (scMET): Subcutaneous injection of the convulsant metrazol produces clonic seizures in laboratory animals. […] Animals were pretreated with various doses of the test compound given by i.p. injection. At the previously determined Time to Peak Effect (TPE) of the test compound, the dose of metrazol which will produce convulsions in 97% of animals (CD97: 85 mg/kg in mice) was injected into a loose fold of skin in the midline of the neck. The animals were placed in isolation cages to minimize stress and observed for the next 30 minutes for the presence or absence of a seizure. An episode of clonic spasms, approximately […], of the fore and/or hind limbs, jaws, or vibrissae is taken as the end point.

[2] = tested on: minimal muscular or neurological impairment; assay: Test 1: Acute toxicity, minimal motor impairment (rotorod), mice i.p.; assay type: in vivo; settings: for Rotorod Toxicity (number of animals exhibiting toxicity/number of animals tested): 300 mg/kg (+); for Rotorod Toxicity: class symbol = dose
Method: as §1, §2

MES-induced seizures [3] = assay: Test 2: MES, rats p.o.; assay type: in vivo
Text: as §3
(§4) Rats received test compounds orally.

Neurological toxicity = assay: Test 2: neurological toxicity, rats p.o.; assay type: in vivo; settings: 30 mg/kg
Text: as §4

[4] = 100 mg/kg (++), 2 hours after dosing
[5] = at 2 hours after dosing (footnote h)

| SMILES | MES (number of animal protected/number of animal tested) (MES-induced seizures [1]; 300 mg/kg (+), 0.5 h) | MES (MES-induced seizures [1]; 0.5 h) | MES (MES-induced seizures [1]; 4.0 h) | ScMET (clonic seizures; 4.0 h) | Rotorod Toxicity (number of animals exhibiting toxicity/number of animals tested) ([2]; 0.5 h) | Rotorod Toxicity ([2]; 4.0 h) | activity in MES (Test 1, in words) (MES-induced seizures [1]) | ScMET (clonic seizures; 0.5 h) | toxicity (Test 1, in words) [2] | Rotorod Toxicity ([2]; 0.5 h) | MES (number of animal protected/number of animal tested) (MES-induced seizures [1]; 100 mg/kg (++), 4.0 h) | MES (number of animal protected/number of animal tested) (MES-induced seizures [1]; 300 mg/kg (+), 4.0 h) | MES (number of animal protected/number of animal tested) (MES-induced seizures [3]; 30 mg/kg, 0.50 h) | MES (number of animal protected/number of animal tested) (MES-induced seizures [3]; 30 mg/kg, 1.00 h) | MES (number of animal protected/number of animal tested) (MES-induced seizures [3]; 30 mg/kg, 2.00 h) | MES (number of animal protected/number of animal tested) (MES-induced seizures [3]; 30 mg/kg, 4.00 h) | also measured |
| --- | --- | --- | --- | --- | --- | --- | --- | --- | --- | --- | --- | --- | --- | --- | --- | --- | --- |
| CC(=O)Oc1ccccc1C(=O)O [Aspirin] | – | – | – | – | – | – | – | – | – | – | – | – | – | – | – | – | haemorrhagic lesions (area), Mean ± S.E.M. (mucosal damage; rat, in vivo, po, 100 mg/kg): 2.7 ± 0.9 mm^2; ulcer development (in words) (mucosal damage; rat, in vivo, po, 100 mg/kg): severe haemorrhagic lesions; gastrointestinal safety (summary in words) (mucosal damage; rats, oral, high equivalent doses compared to aspirin): caused severe ulcers |
| CCOC(=O)CC1(CNC(=O)OCCSSCCO[N+](=O)[O-])CCCCC1 [I-A1-NOPD1] | 1/1 | + (+ = activity or toxicity at 300 mg/kg) | - (- = no activity or no toxicity at 300 mg/kg) | - (- = no activity or no toxicity at 300 mg/kg) | 4/4 | - (- = no activity or no toxicity at 300 mg/kg) | – | – | – | – | – | – | – | – | – | – | MES (number of animal protected/number of animal tested) (MES-induced seizures [1]; 100 mg/kg (++), 0.25 hours after dosing): (1/3)^k; MES (MES-induced seizures [1]; at 0.25 hours after dosing (footnote k)): ++ (++ = activity or toxicity at 100 mg/kg); ScMET (number of animal protected/number of animal tested) (clonic seizures; 0.5 h): 1/1 |
| CCOC(=O)CC1(CNC(=O)OCCSSCC(=O)OC)CCCCC1 [I-A1-PD5] | – | + (+ = activity or toxicity at 300 mg/kg) | - (- = no activity or no toxicity at 300 mg/kg) | - (- = no activity or no toxicity at 300 mg/kg) | 3/4 | - (- = no activity or no toxicity at 300 mg/kg) | active in MES | + (+ = activity or toxicity at 300 mg/kg) | no or mild toxicity | + (+ = activity or toxicity at 300 mg/kg) | – | – | – | – | – | – | – |
| CS(=O)(=O)NC(=O)OCCSSCCOC(=O)Nc1nnc(-c2cccc(Cl)c2Cl)c(N)n1 [I-A1-PD15] | (1/1) | + (+ = activity or toxicity at 300 mg/kg) | – | - (- = no activity or no toxicity at 300 mg/kg) | – | - (- = no activity or no toxicity at 300 mg/kg) | active in MES | - (- = no activity or no toxicity at 300 mg/kg) | no or mild toxicity | - (- = no activity or no toxicity at 300 mg/kg) | 2/3 | 1/1 | 0/4 | 1/4 | 3/4 | 4/4 | – |
| Nc1nc(NC(=O)OCCSSCCOC(=O)NCC2(CC(=O)O)CCCCC2)nnc1-c1cccc(Cl)c1Cl [I-AA-MPD11] | 1/1 | – | – | - (- = no activity or no toxicity at 300 mg/kg) | 1/4 | - (- = no activity or no toxicity at 300 mg/kg) | active in MES | - (- = no activity or no toxicity at 300 mg/kg) | no or mild toxicity | – | 3/3 | 1/1 | 0/4 | 2/4 | 1/4 | 4/4 | Toxicity (number of animals exhibiting toxicity/number of animals tested) (Neurological toxicity; 0.50 h): 0/4; Toxicity (number of animals exhibiting toxicity/number of animals tested) (Neurological toxicity; 1.00 h): 0/4; Toxicity (number of animals exhibiting toxicity/number of animals tested) (Neurological toxicity; 2.00 h): 0/4; Toxicity (number of animals exhibiting toxicity/number of animals tested) (Neurological toxicity; 4.00 h): 0/4 |
| CCOC(=O)CC1(CNC(=O)OCCSSCCOC(=O)NC(=O)[C@H](CC)N2CCCC2=O)CCCCC1 [I-AA-MPD13] | – | - (- = no activity or no toxicity at 300 mg/kg) | - (- = no activity or no toxicity at 300 mg/kg) | - (- = no activity or no toxicity at 300 mg/kg) | 4/4 | - (- = no activity or no toxicity at 300 mg/kg) | – | + (+ = activity or toxicity at 300 mg/kg) | – | + (+ = activity or toxicity at 300 mg/kg) | – | – | – | – | – | – | ScMET (number of animal protected/number of animal tested) (clonic seizures; 0.5 h): 1/1 |
| CCCC(CCC)C(=O)OCCSSCCOC(=O)Nc1nnc(-c2cccc(Cl)c2Cl)c(N)n1 [I-CA-MPD23] | – | - (- = no activity or no toxicity at 300 mg/kg) | + (+ = activity or toxicity at 300 mg/kg) | - (- = no activity or no toxicity at 300 mg/kg) | – | - (- = no activity or no toxicity at 300 mg/kg) | active in MES | - (- = no activity or no toxicity at 300 mg/kg) | no or mild toxicity | - (- = no activity or no toxicity at 300 mg/kg) | – | 1/3 | – | – | – | – | MES (number of animal protected/number of animal tested) (MES-induced seizures [1]; [4]): 1/3; MES (MES-induced seizures [1]; [5]): ++ (++ = activity or toxicity at 100 mg/kg); MES (number of animal protected/number of animal tested) (MES-induced seizures [3]; 150 mg/kg, 2.00 h): 4/4; MES (number of animal protected/number of animal tested) (MES-induced seizures [3]; 150 mg/kg, 4.00 h): 4/4; MES (number of animal protected/number of animal tested) (MES-induced seizures [3]; 150 mg/kg, 6.00 h): 4/4; MES (number of animal protected/number of animal tested) (MES-induced seizures [3]; 150 mg/kg, 8.00 h): 4/4 |
| Nc1nc(NC(=O)OCCSSCCOC(=O)c2cccnc2)nnc1-c1cccc(Cl)c1Cl [I-CA-MPD24] | – | - (- = no activity or no toxicity at 300 mg/kg) | ++ (++ = activity or toxicity at 100 mg/kg) | – | – | - (- = no activity or no toxicity at 300 mg/kg) | active in both MES and scMET models | - (- = no activity or no toxicity at 300 mg/kg) | non-toxic; also recorded: no or mild toxicity | - (- = no activity or no toxicity at 300 mg/kg) | 3/3 | – | 0/4 | 2/4 | 3/4 | 4/4 | MES (number of animal protected/number of animal tested) (MES-induced seizures [1]; [4]): 3/3; MES (number of animal protected/number of animal tested) (MES-induced seizures [1]; 100 mg/kg (++), 6 hours after dosing): (3/3)^m; MES (MES-induced seizures [1]; [5]): ++ (++ = activity or toxicity at 100 mg/kg); MES (MES-induced seizures [1]; at 6 hours after dosing (footnotes g, m)): ++ (++ = activity or toxicity at 100 mg/kg); activity in scMET (Test 1, in words) (clonic seizures): active in both MES and scMET models; ScMET (number of animal protected/number of animal tested) (clonic seizures; 4.0 h): (1/1)^l |
| Cl.Nc1nc(NC(=O)OCCSSCCNC(=O)c2cccnc2)nnc1-c1cccc(Cl)c1Cl [I-CA-MPD25] | (1/1) | + (+ = activity or toxicity at 300 mg/kg) | – | - (- = no activity or no toxicity at 300 mg/kg) | – | - (- = no activity or no toxicity at 300 mg/kg) | active in MES | - (- = no activity or no toxicity at 300 mg/kg) | no or mild toxicity | - (- = no activity or no toxicity at 300 mg/kg) | 2/3 | 1/1 | 0/4 | 3/4 | 4/4 | 2/4 | – |

From patent EP2266622A2, “Prodrugs containing novel bio-cleavable linkers” (Piramal Life Sciences Limited, priority 2004, dated 2006)
